Our source for the IC50 and death values is patent EP0771564A1, “INTERLEUKIN-5 PRODUCTION INHIBITOR” (TAISHO PHARMACEUTICAL CO. LTD, priority 1994, dated 1996).

One data set has as its system IL-5 production. As to the kind of experiment: Inhibition of IL-5 production by antigen-stimulated murine Th2 clone D10.G4.1 cells (IL-5 ELISA of culture supernatant). The format is cell-based, mice. The settings on record: inhibitory effect on IL-5 production, D10.G4.1 cells with MMC-treated antigen presenting cells and conalbumin, 48 hours incubation. For orientation: ELISA stands for enzyme-linked immunosorbent assay.

In the next data set the test system is ICR male mice. In words: Oral administration safety test in mice (mortality). The format is in vivo. Conditions: orally administered to ICR male mice, dose level of 100 mg/kg. An excerpt:
The compounds of Examples 1 and 2 were orally administered to ICR male mice grouped in fives.

The term IC50 denotes the concentration that inhibits the measured activity by half. High values mean lower potency, low ones higher potency.

Method for IL-5 production: Murine Th2 clone (D10.G4.1 cells) was purchased from ATCC. Antigen presenting cells were prepared by suspending 1 x 10^7 spleen cells of a 8-week-old female C3H/HeN mice in 5 ml of an RPMI-1640 medium and incubated together with 50 µg/ml of mitomycin C (MMC) at 37°C for 30 minutes and then washed with three 50 ml portions of RPMI-1640. To RPMI-1640 containing 10% bovine serium were added 0.5 U of IL-2 (produced by Genzyme) and 5 x 10^-5 M of 2-mercaptoethanol to prepare a medium for tissue culture.
In each well of a 96-well microtiter plate (produced by Corning Glass Works) were put each 50 µl/well of 4 x 10^5 cells/ml of D10.G4.1 cells, 2 x 10^6 cells/ml of MMC-treated antigen presenting cells, 400 µg/ml of conalbumin (produced by Sigma) as an antigen and the solution of the test compound in the tissue culture medium (to make 200 µl/well), and incubated in an incubator under 5% CO2 at 37°C for 48 hours. After completion of the incubation, the supernatant liquor of the culture was collected, and the cells were seprated by centrifugation. The IL-5 in the supernatant liquor was determined with an IL-5 ELISA kit produced by ENDOGEN.

For “3-O-(4-Biphenyl)acetyl-5-O-desosaminyl-6-O-methylerythronolide A 11,12-Cyclic Carbonate [Compound of Example 1]”, the IC50 with IL-5 production is less than 400 nM.
`CCC1OC(=O)C(C)C(Oc2c(F)c(F)c(F)c(F)c2[N+](=O)[O-])C(C)C(OC2OC(C)CC(N(C)C)C2O)C(C)(OC)CC(C)C(=O)C(C)C(O)C1(C)O` (centres unmarked) [Compound of Example 2, 3-O-(2-Nitro-3,4,5,6-tetrafluoro)-phenyl-5-O-desosaminyl-6-O-methylerythronolide A] came in with an IC50 in the data set on IL-5 production of less than 100 nM. Also, in the data set on ICR male mice, the death result is “No death was observed”.
For the compound `CC[C@H]1OC(=O)[C@H](C)[C@@H](O[C@H]2C[C@@](C)(OC)[C@@H](O)[C@H](C)O2)[C@H](C)[C@@H](O[C@@H]2O[C@H](C)C[C@H](N(C)C)[C@H]2O)[C@](C)(O)C[C@@H](C)C(=O)[C@H](C)[C@@H](O)[C@]1(C)O` [Erythromycin, reference compound], half-maximal inhibition in the data set with IL-5 production (Mus musculus) (IC50) was put at 4500 nM.
Consider `CC[C@H]1OC(=O)[C@H](C)[C@@H](O[C@H]2C[C@@](C)(OC)[C@@H](O)[C@H](C)O2)[C@H](C)[C@@H](O[C@@H]2O[C@H](C)C[C@H](N(C)C)[C@H]2O)[C@](C)(O)C[C@@H](C)/C(=N\OCOCCOC)[C@H](C)[C@@H](O)[C@]1(C)O` [Roxithromycin, reference compound], for which the IC50 with IL-5 production (Mus musculus) is 930 nM.
